# Test results reported in patent publication US8957083B2, “Spiro-amino-imidazolone and spiro-amino-dihydro-pyrimidinone compounds as beta-secretase modulators and methods of use” (Amgen Inc., priority 2010, dated 2015).
# Read-outs that look alike come from different tables or passages of the source.
# Tests used:
# [1] = molecular target: BACE 1 (Beta Secretase enzyme) (Homo sapiens (Human), UniProt P56817); test: In vitro enzymatic BACE FRET assay; assay type: biochemical; details: average IC50; enzyme 0.2 nM, FRET substrate 50 nM, pH 4.2; read-out: BACE 1 FRET assay
# Sequence of BACE 1 (Beta Secretase enzyme) (P56817 46-501): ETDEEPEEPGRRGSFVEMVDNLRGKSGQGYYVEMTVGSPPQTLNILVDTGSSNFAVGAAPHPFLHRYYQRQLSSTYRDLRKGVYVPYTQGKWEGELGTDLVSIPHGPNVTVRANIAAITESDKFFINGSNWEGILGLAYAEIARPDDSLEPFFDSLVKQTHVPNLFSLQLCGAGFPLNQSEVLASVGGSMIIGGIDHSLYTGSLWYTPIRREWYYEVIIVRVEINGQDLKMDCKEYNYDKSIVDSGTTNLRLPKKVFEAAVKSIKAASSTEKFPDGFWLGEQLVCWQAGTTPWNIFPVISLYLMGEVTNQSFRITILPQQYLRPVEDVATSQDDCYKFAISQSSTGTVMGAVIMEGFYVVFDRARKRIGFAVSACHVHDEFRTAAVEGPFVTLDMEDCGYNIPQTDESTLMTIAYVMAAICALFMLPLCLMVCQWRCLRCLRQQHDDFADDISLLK
# Description: In Vitro Enzymatic BACE FRET (Fluorescence Resonance Energy Transfer) Assay (Enzyme Assay Data in the Example Table I)
# The assay buffer used in this screen is 0.05 M acetate, pH 4.2, 10% DMSO final, 100 uM genapol (which is a nonionic detergent, below its Critical Micelle Concentration). […] This assay is effectively started by the addition of FRET substrate (50 nM) and the combination is incubated for one hour. The FRET assay is terminated with by addition of Tris buffer, which raises the pH to neutrality, and the fluorescence is determined. The FRET substrate is a peptide with commercially available fluorophore and quencher, on opposite sides of the BACE cleavage site. Proteolytic cleavage of the FRET substrate releases quenching of fluorescence (excitation […] and […]).
# [2] = system: Aβ40 in conditioned medium of cells expressing amyloid precursor protein; test: In vitro BACE cell-based assay (HEK cell assay), Aβ40 sandwich ELISA; details: average IC50, Aβ40 in supernatant after 24 h incubation, read-out: HEK cell assay
# Description: In Vitro BACE Cell-Based Assay
# The cell-based assay measures inhibition or reduction of Aβ40 in conditioned medium of test compound treated cells expressing amyloid precursor protein.
# Cells stably expressing Amyloid Precursor Protein (APP) were plated at a density of 40K cells/well in 96 well plates (Costar). The cells were cultivated for 24 hours at 37° C. and 5% CO2 in DMEM supplemented with 10% FBS. The test compounds were then added to cells in 10-point dose response concentrations with the starting concentration being either 100 μM or 10 μM. The compounds were diluted from stock solutions in DMSO and the final DMSO concentration of the test compounds on cells was 0.1%. After 24 h of incubation with the test compounds the supernatant conditioned media was collected and the Aβ 40 levels were determined using a sandwich ELISA. The IC50 of the compound was calculated from the percent of control or percent inhibition of Aβ 40 as a function of the concentration of the test compound.
# The sandwich ELISA to detect Aβ 40 was performed in 96 well microtiter plates, which were pre-treated with goat anti-rabbit IgG (Pierce). The capture and detecting antibody pair that were used to detect Aβ 40 from cell supernatants were affinity purified pAb40 (Biosource) and biotinylated 6E10 (Signet Labs Inc.), respectively. The optimal concentration for the pAb40 antibody was 3 μg/ml in Superblock/TBS (Pierce) that was supplemented with 0.05% Tween 20 (Sigma).
# Cellular supernatants were incubated with the capture antibody for 3 h at 4° C., followed by 3 wash steps in TBS-tween (0.05%). The detecting antibody incubation was for 2 h at 4° C., again followed by the wash steps as described previously. The final readout of the ELISA is Time-Resolved Fluorescence (counts per minute) using Delfia reagents Streptavidin-Europium and Enhancement solutions (Perkin Elmer) and the Victor 2 multilabel counter (Perkin Elmer).
# Cathepsin D (Cat D) = Cathepsin D (Cat D) (Homo sapiens (Human), UniProt P07339); test: In vitro enzymatic Cathepsin D (Cat D) FRET assay; assay type: biochemical; details: Cat D enzyme 9 nM, FRET substrate 20 nM, pH 3.5
# Sequence of Cathepsin D (Cat D) (P07339 65-412, species assumed): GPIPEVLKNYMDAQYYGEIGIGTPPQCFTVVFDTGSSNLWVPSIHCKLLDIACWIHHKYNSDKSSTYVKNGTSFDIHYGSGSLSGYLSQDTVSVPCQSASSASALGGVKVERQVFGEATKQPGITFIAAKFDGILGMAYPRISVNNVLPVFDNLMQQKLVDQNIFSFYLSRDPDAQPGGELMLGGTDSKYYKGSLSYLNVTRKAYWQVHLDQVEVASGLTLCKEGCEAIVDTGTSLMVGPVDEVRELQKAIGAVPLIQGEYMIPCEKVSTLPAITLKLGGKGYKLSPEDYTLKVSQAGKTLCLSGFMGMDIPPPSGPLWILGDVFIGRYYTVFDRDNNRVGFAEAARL
# Description: In Vitro Enzymatic Cathepsin D (Cat D) FRET (Fluorescence Resonance Energy Transfer) Assay
# Recombinant Cat D was expressed in CHO cells. The assay buffer for CathepsinD is 0.05 M citrate pH 3.5, 10% DMSO final, 5 mM CHAPS. The Cat D enzyme (9 nM) is pre-incubated for one hour with inhibitors, typically in about luL of DMSO according to a serial dilution, is added thereto. The assays are effectively started by the addition of different FRET substrates (20 nM for Cat D) and the combination is incubated for one hour. The FRET assay is terminated with by addition of Tris buffer, which raises the pH to neutrality, and the fluorescence is determined. The FRET substrate is a peptide with commercially available fluorophore and quencher, on opposite sides of the BACE cleavage site. The Cat D substrate peptide sequence is based on sequence #1 of Table 1 from Gulnik et al. FEB S Letters v413 p 379-384 1997. Proteolytic cleavage of the FRET substrate releases quenching of fluorescence (Cat D excitation 500 nm and emission 580 nm).
# Where available, the in-vitro Cat D FRET assay data for each of the Examples, conducted by the first procedure, is provided.
# Aβ = details: orally available; cited from earlier work
# Aβ in lumbar CSF = details: cited from earlier work
# [3] = system: pigment epithelium of the rat's eye; details: higher compound dose given for three months; cited from earlier work
IC50 [1] [nM],"IC50 ([2]; Homo sapiens, HEK293, 24 h) [nM]",SMILES,further results
9.3,59.8,"CN1C(=O)C[C@]2(N=C1N)c1cc(-c3cccnc3F)ccc1Oc1cnc(C3=CCOCC3)cc12 [Example 22, (S)-2′-amino-3-(3,6-dihydro-2H-pyran-4-yl)-7-(2-fluoropyridin-3-yl)-1′-methyl-1′H-spiro[chromeno[2,3-c]pyridine-5,4′-pyrimidin]-6′(5′H)-one]",–
1750,1680,"CN1C(=O)C[C@@]2(N=C1N)c1cc(-c3cccnc3F)ccc1Oc1cnc(C3=CCOCC3)cc12 [Example 23, (R)-2′-amino-3-(3,6-dihydro-2H-pyran-4-yl)-7-(2-fluoropyridin-3-yl)-1′-methyl-1′H-spiro[chromeno[2,3-c]pyridine-5,4′-pyrimidin]-6′(5′H)-one]",–
12.1,52.3,"CN1C(=O)C[C@]2(N=C1N)c1cc(-c3cccnc3F)ccc1Oc1cnc(C3=CCCOC3)cc12 [Example 24, (S)-2′-amino-3-(5,6-dihydro-2H-pyran-3-yl)-7-(2-fluoropyridin-3-yl)-1′-methyl-1′H-spiro[chromeno[2,3-c]pyridine-5,4′-pyrimidin]-6′(5′H)-one]",–
2430,6170,"CN1C(=O)C[C@@]2(N=C1N)c1cc(-c3cccnc3F)ccc1Oc1cnc(C3=CCCOC3)cc12 [Example 25, (R)-2′-amino-3-(5,6-dihydro-2H-pyran-3-yl)-7-(2-fluoropyridin-3-yl)-1′-methyl-1′H-spiro[chromeno[2,3-c]pyridine-5,4′-pyrimidin]-6′(5′H)-one]",–
0.6,5,"CN1C(=O)C[C@]2(N=C1N)c1cc(-c3cccnc3F)ccc1Oc1c2cc(C2=CC(C)(C)OCC2)nc1F [Example 26, (S)-2′-amino-3-(6,6-dimethyl-3,6-dihydro-2H-pyran-4-yl)-1-fluoro-7-(2-fluoropyridin-3-yl)-1′-methyl-1′H-spiro[chromeno[2,3-c]pyridine-5,4′-pyrimidin]-6′(5′H)-one]",–
0.7,5,"CN1C(=O)C[C@]2(N=C1N)c1cc(-c3cccnc3F)ccc1Oc1c2cc(C2=CCOC(C)(C)C2)nc1F [Example 27, (S)-2′-amino-3-(2,2-dimethyl-3,6-dihydro-2H-pyran-4-yl)-1-fluoro-7-(2-fluoropyridin-3-yl)-1′-methyl-1′H-spiro[chromeno[2,3-c]pyridine-5,4′-pyrimidin]-6′(5′H)-one]",–
2,2.2,"CN1C(=O)C[C@]2(N=C1N)c1cc(-c3cccnc3F)ccc1Oc1c2cc(C2CCOC(C)(C)C2)nc1F (stereo partly drawn) [Example 28, (4′S)-2′-amino-3-(2,2-dimethyltetrahydro-2H-pyran-4-yl)-1-fluoro-7-(2-fluoropyridin-3-yl)-1′-methyl-1′H-spiro[chromeno[2,3-c]pyridine-5,4′-pyrimidin]-6′(5′H)-one]",–
179,4410,"CC#Cc1cncc(-c2ccc3c(c2)[C@@]2(N=C(N)N(C)C2=O)c2cc(C4=CCOCC4)cc(F)c2O3)c1 [Example 31, (4R)-2-amino-2′-(3,6-dihydro-2H-pyran-4-yl)-4′-fluoro-1-methyl-7′-(5-(1-propyn-1-yl)-3-pyridinyl)spiro[imidazole-4,9′-xanthen]-5(1H)-one]",–
0.5,–,"CC#Cc1cncc(-c2ccc3c(c2)[C@]2(N=C(N)N(C)C2=O)c2cc(C4=CCOCC4)cc(F)c2O3)c1 [Example 32, (4S)-2-amino-2′-(3,6-dihydro-2H-pyran-4-yl)-4′-fluoro-1-methyl-7′-(5-(1-propyn-1-yl)-3-pyridinyl)spiro[imidazole-4,9′-xanthen]-5(1H)-one]",IC50 [2]: 7.6 nM
0.3,9.9,"CN1C(=O)[C@]2(N=C1N)c1cc(-c3cccc(Cl)c3)ccc1Oc1c(F)cc(C3=CCOCC3)cc12 [Example 34, (4S)-2-amino-7′-(3-chlorophenyl)-2′-(3,6-dihydro-2H-pyran-4-yl)-4′-fluoro-1-methylspiro[imidazole-4,9′-xanthen]-5(1H)-one]",–
24.3,1820,"CN1C(=O)[C@@]2(N=C1N)c1cc(-c3cccc(Cl)c3)ccc1Oc1c(F)cc(C3=CCOCC3)cc12 [Example 35, (4R)-2-amino-7′-(3-chlorophenyl)-2′-(3,6-dihydro-2H-pyran-4-yl)-4′-fluoro-1-methylspiro[imidazole-4,9′-xanthen]-5(1H)-one]",–
225,–,"Cc1ccc(-c2cc(F)c3c(c2)[C@]2(N=C(N)N(C)C2=O)c2cc(-c4cccc(Cl)c4)ccc2O3)cc1 [Example 36, (4R)-2-amino-7′-(3-chlorophenyl)-4′-fluoro-1-methyl-2′-(4-methylphenyl)spiro[imidazole-4,9′-xanthen]-5(1H)-one]",IC50 [2]: > 10000 nM
2.9,147,"Cc1ccc(-c2cc(F)c3c(c2)[C@@]2(N=C(N)N(C)C2=O)c2cc(-c4cccc(Cl)c4)ccc2O3)cc1 [Example 37, (4S)-2-amino-7′-(3-chlorophenyl)-4′-fluoro-1-methyl-2′-(4-methylphenyl)spiro[imidazole-4,9′-xanthen]-5(1H)-one]",–
6.7,39,"COc1ccc2c(c1)C1(N=C(N)N(C)C1=O)c1cc(NC(=O)c3ccc(Cl)cn3)ccc1O2 (stereo not drawn) [Example 40, N-(2-amino-2′-methoxy-1-methyl-5-oxo-1,5-dihydrospiro[imidazole-4,9′-xanthen]-7′-yl)-5-chloropicolinamide]",IC50 (Cathepsin D (Cat D)): 7400 nM
–,–,"C[C@@]1(c2cc(-c3cncnc3)c(F)cc2F)CCSC(N)=N1 [LY2811376, (S)-4-(2,4-difluoro-5-pyrimidin-5-yl-phenyl)-4-methyl-5,6-dihydro-4H-[1,3]thiazin-2-ylamine]",Aβ-lowering effects in animals (Aβ): profound Aβ-lowering effects; Aβ reductions in lumbar CSF (Aβ in lumbar CSF; after oral dosing of 30 or 90 mg): Prominent and long-lasting Aβ reductions; safety and tolerability (Aβ in lumbar CSF; healthy volunteers): safe and well tolerated; retinal toxicity finding [3]: ravaged the pigment epithelium of the rat's eye
